Where a SMILES comes first, the peptide text is derived from it. [ ]: non-standard residue; d: D form. The star is where a group is joined. 5FAM = O=C1OC2(c3ccc(O)cc3Oc3cc(O)ccc32)c2ccc(C(=O)*)cc21; Pro(cis-4-guanidino) = NC(N)=N[C@@H]1CN[C@H](C(=O)O)C1; Cha = N[C@@H](CC1CCCCC1)C(=O)O; Ahx = NCCCCCC(=O)O

In one data set the test system is MCF-7 cells. Nature of the data set: Flow cytometry at 4 °C versus 37 °C. It counts as cell-based. Particulars: MCF-7, 20 µM, 1 h. The protocol: MCF-7 cells were seeded in a 24-well plate at 150′000 cells/well in DMEM (1 mL, 10% FCS), and allowed to adhere overnight. The medium was removed, the cells were washed with PBS (250 μL, 1x) and incubated with the peptide solution at 20 μM, 10 μM, 5 μM or 2.5 μM in medium (200 μL, 1% FCS) for 1 h at 37 °C. The medium was removed, and the cells were washed with PBS (250 μL, 2x). Trypsin (100 μL, 0.05%) was added, and the cells were incubated at 37 °C for 5 min. D-PBS with Mg^2+ and Ca^2+ (300 μL, 4 °C) was added, the cells were resuspended and centrifuged for 5 min at 0.4 rcf. The supernatant was carefully removed, and the cells were resuspended in a solution of PBS containing 1.5 μM PI and 2 mM EDTA (400 μL at 4 °C). […] Each sample contained 10′000 cells and was analyzed in triplicate. […]
Figure S9. […] After 1 h incubation at 4 °C, the fluorescence signal is in case of most of the peptides lower, indicating an endocytosis pathway. […]
of different entry mechanisms. The indicated P-values were determined using one-way ANOVA followed by Tukey’s […]
(also on this page, place not known: µM µM °C µM °C (ChaZZ) µM °C (ChaZZ) µM °C (ChaZZ) µM °C 20000Mean fluorescence intensity (ChaZZ)3 °CCells °C (ChaZZ) µM °C (ChaZZ) µM °C (ChaZZ) 3-Cha µM °C (ChaZZ) 3-Cha µM °C (ChaZZ) 3-Cha µM °C (ChaZZ) 3-Cha µM °C (ChaZZ) 3-Cha µM °C (ChaZZ) 3-Cha µM °C 30000Mean fluorescence intensity)

Data set [1] is described as follows: RP-HPLC retention time as estimate of hydrophobicity (C4 column, 30 to 55% B). It counts as physicochemical. The settings on record: RP-HPLC used as estimate of hydrophobicity, A H2O/MeCN/TFA (1000/10/1), gradient 30 to 55% B, 20 min, CF-Ahx-labelled peptides. The protocol:
2 (A) General structure of amphipathic peptides, CF-Ahx-[XZZ]3-NH2; CF = 5(6)-Carboxyfluorescein, Ahx = aminohexanoic acid. (B) CD spectra of the peptides, recorded at 50 μM in H2O, pH 5.7. For a comparison with a spectrum of a Gup oligomer, see Figure S2. (C) Retention time of the peptides measured by RP-HPLC on a C4 column with a mobile phase from 30 to 55% of MeCN in H2O/MeCN/TFA (1000/10/1). (D) Representative confocal microscopic images of live MCF-7 cells, incubated for 1 h at 37 °C with peptide solutions at a concentration of 10 μM in DMEM + 1% FBS (left, in green). Mitochondria were stained with Deep Red MitoTracker (middle, in red) and merged images (right, orange/yellow indicating colocalization) with Hoechst33342 stain (blue) for the nucleus. TEXT PRINTED IN THE PICTURE: (C) (ValZZ)3: tr(min): 1.8 | (C) (PheZZ)3: tr(min): 2.9 | (C) (TrpZZ)3: tr(min): 3.2 | (C) (ChaZZ)3: tr(min): 5.4 DOUBTS OF THE COPYIST ABOUT THIS PICTURE: Panel C, column head: the small lowered letter after t is read as r (tr), not certain
The Gup residues should preorganize the peptides into a PPII helix with one hydrophobic and two cationic edges along the PPII helical peptide. Indeed, circular dichroism (CD) spectra of the peptides display the characteristic minimum and maximum at ∼206 nm and ∼224 nm, respectively, of a PPII helix (Figure B). The spectra imply that the non-proline residues in every third position are tolerated within the helical structure. We used reverse phase high performance liquid chromatography (RP-HPLC) for an estimate of the hydrophobicity of the peptides. On a C4 column using two mobile phases A (H2O/MeCN/TFA (1000/10/1)) and B (MeCN) with a gradient of 30% to 55% B, all peptides eluted over 20 min but with different retention times (Figure C). The Cha-containing peptide had the longest retention time, indicating the highest hydrophobicity within the series, followed by the Trp-, Phe-, and Val-peptides.

CF-Ahx-(ChaZZ)3-NH2: in the data set on MCF-7 cells, the “Fluorescence signal after incubation at 4 °C compared with 37 °C (FACS)” value was “close-to-level signal”.
Take CF-Ahx-(ChaZZ)2-Cha-NH2: the Retention time tr in data set [1] is 8.1 min.
Still for that read-out and setting: the figure for `N=C(N)N[C@H]1C[C@@H](C(=O)N2C[C@@H](NC(=N)N)C[C@H]2C(=O)N[C@@H](CC2CCCCC2)C(=O)N2C[C@@H](NC(=N)N)C[C@H]2C(=O)N2C[C@@H](NC(=N)N)C[C@H]2C(=O)N[C@@H](CC2CCCCC2)C(=O)N2C[C@@H](NC(=N)N)C[C@H]2C(=O)N2C[C@@H](NC(=N)N)C[C@H]2C(=O)N[C@@H](CC2CCCCC2)C(N)=O)N(C(=O)[C@H](CC2CCCCC2)NC(=O)CCCCCNC(=O)c2ccc3c(c2)C(=O)OC32c3ccc(O)cc3Oc3cc(O)ccc32)C1` [(ChaZZ)3-Cha, CF-Ahx-(ChaZZ)3-Cha-NH2] ({5FAM-Ahx}-[Cha][Pro(cis-4-guanidino)][Pro(cis-4-guanidino)][Cha][Pro(cis-4-guanidino)][Pro(cis-4-guanidino)][Cha][Pro(cis-4-guanidino)][Pro(cis-4-guanidino)][Cha]-NH2) is 8.5 min.
